In publication PMC7997369, “Assessment of the Multifunctional Behavior of Lupin Peptide P7 and Its Metabolite Using an Integrated Strategy” (Journal of Agricultural and Food Chemistry, 2020):
Where “and” joins values, the source holds several entries; their conditions need not be identical. Equal values may be shown once. No end group written: not given here.

How the values were obtained:
DPP-IV = DPP-IV (Homo sapiens, UniProt P27487); test: Stability of P7 in the presence of DPP-IV; type: in vitro ADME; details: P7 (500 μM) with purified recombinant DPP-IV, Tris–HCl pH 8.0, 37 °C, 5, 30 and 120 min; LC–MS MRM
Procedure: The experiments were carried out in microcentrifuge tubes. Each reaction (100 μL) was prepared by adding the reagents in the following order: 1× DPP-IV assay buffer [20 mM Tris–HCl at pH 8.0 containing 100 mM NaCl and 1 mM ethylenediaminetetraacetic acid (EDTA)] (80 μL), P7 solution (10 μL, 500 μM), and finally DPP-IV (10 μL). Subsequently, the samples were mixed and kept at 37 °C in a thermoblock for 5, 30, and 120 min. At the end of the reactions, DPP-IV was inactivated by adding 200 μL of precooled acetonitrile (ACN) to each tube; then the samples were centrifuged for 10 min at 13300g at 4 °C; and the supernatant was collected. P7 and LTFPG were loaded onto the enrichment column (Zorbax 300SB-C18, 5 μm pore size) at a flow rate of 4 μL/min using isocratic 100% C solvent phase (99% water, 1% ACN, and 0.1% formic acid). After the cleanup, P7 and LTFPG were separated on a 150 mm × 75 μm analytical column (Zorbax300SB-C18, 5 μm pore size) at the constant flow rate of 300 nL/min. The LC solvent A was 95% water, 5% ACN, and 0.1% formic acid; solvent B was 5% water, 95% ACN, and 0.1% formic acid. The nanopump gradient program was as follows: 5% solvent B (0 min), 70% solvent B (0–8 min), and back to 5% solvent B in 2 min. Post-time was 10 min. The drying gas temperature was 300 °C, and the flow rate was 3 L/min (nitrogen). Data acquisition occurred in positive ionization mode. […]

[1] = tested on: differentiated Caco-2 cell monolayers; test: Transepithelial transport and metabolism across differentiated Caco-2 cell monolayers; type: in vitro ADME, human; details: for detected at the AP side, P7 tested within a mixture: AP solutions of differentiated Caco-2 collected after 120 min; for amount in the BL compartment after 60 min, peptide alone / amount in the BL compartment after 60 min, P7 in the mixture / absorbed amount after 2 h, P7 in the mixture: HPLC–Chip–MS/MS; for rate of transport, peptide alone: AP pH 6.0 (MES), BL pH 7.4
Procedure: For differentiation, Caco-2 cells were seeded on polycarbonate filters with a 12 mm diameter and 0.4 μm pore diameter (Transwell, Corning, Inc., Lowell, MA, U.S.A.) at a 3.5 × 10^5 cells/cm^2 density in complete medium supplemented with 10% FBS in both AP and BL compartments for 2 days to allow for the formation of a confluent cell monolayer. Starting from day 3 after seeding, cells were transferred to FBS-free medium in both compartments, supplemented with ITS [final concentration of 10 mg/L insulin (I), 5.5 mg/L transferrin (T), and 6.7 μg/L sodium selenite (S), GIBCO–Invitrogen, San Giuliano Milanese, Italy] only in the BL compartment, and allowed to differentiate for 18–21 days with regular medium changes 3 times weekly.[12]
The transepithelial electrical resistance (TEER) of differentiated Caco-2 cells was measured at 37 °C using the voltmeter apparatus Millicell (Millipore Co., Billerica, MA, U.S.A.), immediately before and at the end of the transport experiments. In addition, at the end of transport experiments, cells were incubated from the AP side with 1 mM phenol red in phosphate-buffered saline (PBS) containing Ca^2+ (0.9 mM) and Mg^2+ (0.5 mM) for 1 h at 37 °C, to monitor the paracellular permeability of the cell monolayer. The BL solutions were then collected, and NaOH (70 μL, 0.1 N) was added before reading the absorbance at 560 nm by a microplate reader Synergy H1 from Biotek (Winooski, VT, U.S.A.). Phenol red passage was quantified using a standard phenol red curve. Only filters showing TEER values and phenol red passages similar to untreated control cells were considered for peptide transport analysis.
Prior to experiments, the cell monolayer integrity and differentiation were checked by TEER measurement as described in detail above. Cells were then washed twice, and peptide transportation by intestinal cells was assayed. Transport experiments were performed in transport buffer solution (137 mM NaCl, 5.36 mM KCl, 1.26 mM CaCl2, 1.1 mM MgCl2, and 5.5 mM glucose) following conditions previously described.[13] To reproduce the pH conditions existing in vivo in the small intestinal mucosa, AP solutions were maintained at pH 6.0 (buffered with 10 mM morpholinoethanesulfonic acid) and BL solutions were maintained at pH 7.4 (buffered with 10 mM N-2-hydroxyethylpiperazine-N-4-[…]). Prior to transport experiments, cells were washed twice with 500 μL of PBS containing Ca^2+ and Mg^2+. Peptide transportation by mature Caco-2 cells was assayed by loading the AP compartment with P7 and/or LTFPG (500 μM) in the AP transport solution (500 μL) and the BL compartment with the BL transport solution (700 μL). The plates were incubated at 37 °C, and the BL solutions were collected at different time points (i.e., 15, 30, 60, 90, and 120 min) and replaced with fresh solutions prewarmed at 37 °C. All BL solutions together with the AP solutions collected at the end of the transport experiment were stored at −80 °C prior to analysis. Three independent transport experiments were performed, each in duplicate.
Quantitative analysis of P7 in the AP and BL samples were carried out by ion trap mass spectrometry (MS) in multiple reaction monitoring (MRM) mode, monitoring two of the most intense diagnostic transitions, after optimization of the acquisition parameters, such as retention time, MS profile, and tandem mass spectrometry (MS/MS) fragmentation spectrum.[14],[15] All further details regarding liquid chromatography–tandem mass spectrometry (LC–MS/MS) operating conditions and method validations are described in the Supporting Information.
The metabolic degradation products deriving from the hydrolytic activity of brush border membrane peptidases were investigated by an untargeted approach (for further details, see the Supporting Information). […]

[2] = untargeted HPLC–Chip–MS/MS, × = detected
[3] = differentiated Caco-2, AP to BL, peptide alone, 500 μM in AP, 37 °C, AP pH 6.0, BL pH 7.4
[4] = differentiated Caco-2, AP to BL, peptide alone, 500 μM in AP, 37 °C, AP pH 6.0, BL pH 7.4, mean ± sd
[5] = differentiated Caco-2 on Transwell, AP to BL, peptide alone, 500 μM in AP, 37 °C, BL sampled 15–120 min, HPLC–Chip–MS/MS MRM, mean ± sd, three independent experiments
[6] = differentiated Caco-2, AP to BL, mixture with P3 and P5, each 500 μM in AP, 37 °C
[7] = differentiated Caco-2, AP to BL, mixture with P3 and P5, each 500 μM in AP, 37 °C, mean ± sd

Chain of DPP-IV (P27487 whole entry): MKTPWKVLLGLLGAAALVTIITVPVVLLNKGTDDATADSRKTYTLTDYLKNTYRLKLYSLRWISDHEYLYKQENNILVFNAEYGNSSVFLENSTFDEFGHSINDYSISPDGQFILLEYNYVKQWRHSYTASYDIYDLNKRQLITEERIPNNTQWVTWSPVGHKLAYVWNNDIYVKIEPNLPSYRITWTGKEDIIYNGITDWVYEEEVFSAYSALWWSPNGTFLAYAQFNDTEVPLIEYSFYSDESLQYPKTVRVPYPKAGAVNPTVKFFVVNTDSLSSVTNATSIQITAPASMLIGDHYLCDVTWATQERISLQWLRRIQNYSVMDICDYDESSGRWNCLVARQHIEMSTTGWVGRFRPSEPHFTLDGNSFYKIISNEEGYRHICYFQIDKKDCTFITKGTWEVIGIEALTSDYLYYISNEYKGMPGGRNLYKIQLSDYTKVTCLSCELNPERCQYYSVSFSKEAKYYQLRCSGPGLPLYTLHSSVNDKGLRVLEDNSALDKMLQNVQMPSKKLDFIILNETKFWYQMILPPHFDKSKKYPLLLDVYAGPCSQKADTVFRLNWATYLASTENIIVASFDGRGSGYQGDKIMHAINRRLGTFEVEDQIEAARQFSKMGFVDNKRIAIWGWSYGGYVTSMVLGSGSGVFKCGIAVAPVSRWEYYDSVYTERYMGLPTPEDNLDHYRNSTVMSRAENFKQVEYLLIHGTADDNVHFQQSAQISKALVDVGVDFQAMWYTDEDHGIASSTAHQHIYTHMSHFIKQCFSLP

Substance | hydrolysis of P7 by DPP-IV (formation of LTFPG) (DPP-IV) | detected at the AP side, P7 tested within a mixture [1, 2] | amount in the BL compartment after 60 min, peptide alone [1, 3] [nmol] | amount in the BL compartment after 60 min, peptide alone [1, 4] [µg] | lag period for transport, peptide alone ([1]; differentiated Caco-2, AP to BL, peptide alone, 500 μM in AP, AP pH 6.0, BL pH 7.4, 37 °C) | rate of transport, peptide alone [1, 5] [ng mL^–1 min^–1] | transport in the presence of wortmannin ([1]; mature Caco-2 cells, wortmannin, inhibitor of the transcellular passage) | detected at the AP side, P7 tested as individual species (alone) ([1]; AP solutions of differentiated Caco-2 at the end of the transport experiment, untargeted HPLC–Chip–MS/MS, × = detected) | fold higher amount in BL when tested alone than in the mixture ([1]; after 60 min of incubation) | amount in the BL compartment after 60 min, P7 in the mixture [1, 6] [nmol] | amount in the BL compartment after 60 min, P7 in the mixture [1, 7] [µg] | absorbed amount after 2 h, P7 in the mixture [1, 6] [nmol] | absorbed amount after 2 h, P7 in the mixture [1, 7] [µg] | lag period for transport, P7 in a mixture ([1]; differentiated Caco-2, AP to BL, mixture with P3 and P5, each 500 μM in AP, AP pH 6.0, BL pH 7.4, 37 °C) | rate of transport, P7 in a mixture ([1]; differentiated Caco-2 on Transwell, AP to BL, mixture with P3 and P5, each 500 μM in AP, AP pH 6.0, BL pH 7.4, 37 °C, BL sampled 15–120 min, HPLC–Chip–MS/MS MRM, mean ± sd, three independent experiments) [ng mL^–1 min^–1]
LTFPG [LTFPG] | clearly detectable after 2 h of incubation | × | 0.412 | 0.22 ± 0.003 | without a lag period | 3.7 ± 0.8 | transported also in the presence of wortmannin |  |  |  |  |  |  |  | 
LTFPGSAED [P7] | subjected to DPP-IV hydrolysis | × | 0.278 | 0.26 ± 0.02 |  | 4.2 ± 0.6 |  | × | about 4 fold | 0.064 | 0.06 ± 0.003 | 0.235 | 0.22 ± 0.5 | 27.7 min and 27 min | 1.98 ± 0.21
